Reference: patent US12303497B2, “Anti-androgens for the treatment of metastatic castration-sensitive prostate cancer” (priority 2019, dated 2025)

System: patients with metastatic castration-sensitive prostate cancer (mCSPC)
[1] = within 30 days of last dose, n = 524

In the case of `CNC(=O)c1ccc(N2C(=S)N(c3cnc(C#N)c(C(F)(F)F)c3)C(=O)C23CCC3)cc1F` [Apalutamide, 4-[7-(6-cyano-5-trifluoromethylpyridin-3-yl)-8-oxo-6-thioxo-5,7-diazaspiro[3.4]oct-5-yl]-2-fluoro-N-methylbenzamide], the “AE leading to dose interruption: Syncope” value (Grade ≥3) is reported as 1 (0.2) no. (%), the “AE leading to dose interruption: Thrombocytopenia” value (Grade ≥3) is reported as 0 no. (%) and the “AE leading to dose interruption: Tongue ulceration” value (Grade ≥3) is reported as 0 no. (%). For the same molecule, the “AE leading to dose interruption: Urethral stenosis” value (Grade ≥3) was 0 no. (%), the “AE leading to dose interruption: Urinary incontinence” value (Grade ≥3) was 0 no. (%) and the “AE leading to dose interruption: Urinary retention” value (Grade ≥3) was 2 (0.4) no. (%). For the same molecule, the “AE leading to dose interruption: Urinary tract obstruction” value (Grade ≥3) was 1 (0.2) no. (%), the “AE leading to dose interruption: Vertigo” value (Grade ≥3) was 1 (0.2) no. (%) and the “AE leading to dose interruption: Vomiting” value (Grade ≥3) was 0 no. (%). The “AE leading to dose interruption: Weight increased” value (Grade ≥3) was 0 no. (%), the “AE leading to dose reduction: Aspartate aminotransferase or alanine aminotransferase increased” value (Grade ≥3) was 0 no. (%) and the “AE leading to dose reduction: Asthenia” value (Grade ≥3) was 0 no. (%). The “AE leading to dose reduction: Cognitive disorder” value (Grade ≥3) was 1 (0.2) no. (%), the “AE leading to dose reduction: Dehydration” value (Grade ≥3) was 0 no. (%) and the “AE leading to dose reduction: Fatigue” value (Grade ≥3) was 2 (0.4) no. (%). For the same molecule, the “AE leading to dose reduction: General physical health deterioration” value (Grade ≥3) was 1 (0.2) no. (%), the “AE leading to dose reduction: Headache” value (Grade ≥3) was 0 no. (%) and the “AE leading to dose reduction: Hot flush” value (Grade ≥3) was 0 no. (%). The “AE leading to dose reduction: Hypertension” value (Grade ≥3) was 1 (0.2) no. (%), the “AE leading to dose reduction: Lethargy” value (Grade ≥3) was 0 no. (%) and the “AE leading to dose reduction: Neutropenia” value (Grade ≥3) was 2 (0.4) no. (%). The “AE leading to dose reduction: Pain” value (Grade ≥3) was 0 no. (%), the “AE leading to dose reduction: Performance status decreased” value (Grade ≥3) was 0 no. (%) and the “AE leading to dose reduction: Rash (grouped term)” value (Grade ≥3) was 11 (2.1) no. (%). The “AE leading to dose reduction: Vertigo” value (Grade ≥3) was 1 (0.2) no. (%), the “AE leading to dose reduction: Weight decreased” value (Grade ≥3) was 1 (0.2) no. (%) and the “AE of special interest: Fall” value (Grade ≥3) was 4 (0.8) no. (%). The “AE of special interest: Fracture (grouped term)” value (Grade ≥3) was 7 (1.3) no. (%), the “AE of special interest: Hypothyroidism (grouped term)” value (Grade ≥3) was 0 no. (%) and the “AE of special interest: Rash (grouped term)” value (Grade ≥3) was 33 (6.3) no. (%). The “AE of special interest: Seizure (grouped term)” value (Grade ≥3) was 1 (0.2) no. (%), the “Patients with treatment-emergent adverse events leading to discontinuation” value (Grade ≥3) was 26 (5.0) no. (%) and the “Patients with treatment-emergent adverse events leading to dose reduction” value (Grade ≥3) was 19 (3.6) no. (%). For the same molecule, the “Patients with treatment-emergent events leading to dose interruption” value (Grade ≥3) was 68 (13.0) no. (%), the “TEAE: Anemia” value (Grade ≥3) was 9 (1.7) no. (%) and the “TEAE: Arthralgia” value (Grade ≥3) was 2 (0.4) no. (%). For the same molecule, the “TEAE: Asthenia” value (Grade ≥3) was 10 (1.9) no. (%), the “TEAE: Back pain” value (Grade ≥3) was 12 (2.3) no. (%) and the “TEAE: Blood alkaline phosphatase increased” value (Grade ≥3) was 2 (0.4) no. (%). For the same molecule, the “TEAE: Bone pain” value (Grade ≥3) was 6 (1.1) no. (%), the “TEAE: Constipation” value (Grade ≥3) was 0 no. (%) and the “TEAE: Fatigue” value (Grade ≥3) was 8 (1.5) no. (%). For the same molecule, the “TEAE: Hot flush” value (Grade ≥3) was 0 no. (%), the “TEAE: Hypertension” value (Grade ≥3) was 44 (8.4) no. (%) and the “TEAE: Pain in extremity” value (Grade ≥3) was 3 (0.6) no. (%). The “TEAE: Pruritus” value (Grade ≥3) was 1 (0.2) no. (%), the “TEAE: Rash generalized” value (Grade ≥3) was 14 (2.7) no. (%) and the “TEAE: Urinary retention” value (Grade ≥3) was 0 no. (%). For the same molecule, the “TEAE: Weight increased” value (Grade ≥3) was 6 (1.1) no. (%), the “Patients who died as the result of an adverse event” value (Ten patients) was 1.9% and the Hypothyroidism reported (all events were grade 1 or 2) was 6.5%. For the same molecule, the “AE leading to discontinuation: Suicide” value (in vivo) was 0 no. (%), the “AE leading to dose interruption: Acute kidney injury” value (in vivo) was 1 (0.2) no. (%) and the “AE leading to dose interruption: Acute respiratory failure” value (in vivo) was 1 (0.2) no. (%). For the same molecule, the “AE leading to dose interruption: Allergy to chemicals” value (in vivo) was 1 (0.2) no. (%), the “AE leading to dose interruption: Anemia” value (in vivo) was 0 no. (%) and the “AE leading to dose interruption: Angina unstable” value (in vivo) was 0 no. (%). For the same molecule, the “Frequency of grade 3 and 4 events” value (in vivo) was 42.2%, the “Frequency of serious adverse events” value (in vivo) was 19.8% and the “Grade 3 rashes” value (in vivo) was 6.3%. For the same molecule, the “Ischemic events led to death” value (in vivo) was “two”, the “Ischemic heart disease reported” value (in vivo) was 4.4% and the “Median time to onset of rash” value (in vivo) was 81 days. For the same molecule, the “Most common event considered related to apalutamide: rash of any type” value (in vivo) was 6.3%, the “Rash of any grade (treatment-emergent skin rash)” value (in vivo) was 27.1% and the “Stevens-Johnson syndrome or toxic epidermal necrolysis” value (in vivo) was “No Stevens-Johnson syndrome or toxic epidermal necrolysis was reported”. The “All deaths within 30 days of last dose” value (investigator reported, n = 524) was 18 (3.4) no. (%), the “AE leading to death: Acute coronary syndrome” value (n = 524) was 0 no. (%) and the “AE leading to death: Acute kidney injury” value (n = 524) was 2 (0.4) no. (%). For the same molecule, the “AE leading to death: Acute myocardial infarction” value (n = 524) was 1 (0.2) no. (%), the “AE leading to death: Cardiac failure” value (n = 524) was 0 no. (%) and the “AE leading to death: Cardio-respiratory arrest” value (n = 524) was 1 (0.2) no. (%). For the same molecule, the “AE leading to death: Cardiogenic shock” value (n = 524) was 1 (0.2) no. (%), the “AE leading to death: Cerebrovascular accident” value (n = 524) was 1 (0.2) no. (%) and the “AE leading to death: Death” value (n = 524) was 0 no. (%). The “AE leading to death: Hypothermia” value (n = 524) was 0 no. (%), the “AE leading to death: Intracranial hemorrhage” value (n = 524) was 0 no. (%) and the “AE leading to death: Myocardial infarction” value (n = 524) was 1 (0.2) no. (%). The “AE leading to death: Pulmonary embolism” value (n = 524) was 0 no. (%), the “AE leading to death: Respiratory failure” value (n = 524) was 1 (0.2) no. (%) and the “AE leading to death: Sepsis” value (n = 524) was 0 no. (%). The “AE leading to death: Subdural hemorrhage” value (n = 524) was 0 no. (%), the “AE leading to death: Sudden cardiac death” value (n = 524) was 1 (0.2) no. (%) and the “AE leading to death: Sudden death” value (n = 524) was 0 no. (%). For the same molecule, the “AE leading to death: Suicide” value (n = 524) was 0 no. (%), the “AE leading to death: Urosepsis” value (n = 524) was 0 no. (%) and the “AE leading to death: Vascular rupture” value (n = 524) was 0 no. (%). For the same molecule, the “Adverse event leading to death” value (n = 524) was 10 (1.9) no. (%), the Any adverse event (n = 524) was 507 (96.8) no. (%) and the “Any adverse event leading to treatment discontinuation” value (n = 524) was 42 (8.0) no. (%). The “Any serious adverse event” value (n = 524) was 104 (19.8) no. (%), the “Grade 3 or 4 adverse event” value (n = 524) was 221 (42.2) no. (%) and the “Patients with adverse events as the primary reason for discontinuation” value (n = 525) was 39 (7.4) no. (%). The “Patients with adverse events leading to discontinuation” value (n = 525 (Table 5)) was 42 (8.0) no. (%), the “Death due to adverse event” value [1] was 10 (1.9) no. (%) and the “Death due to prostate cancer” value [1] was 8 (1.5) no. (%).
